We go through 30 compounds from patent US10787450B2 (BRISTOL-MYERS SQUIBB COMPANY, priority 2016, dated 2020).

In this experiment the target is ROCK2 (Homo sapiens (Human), UniProt O75116). In words: ROCK2 kinase inhibition assay (FITC peptide substrate, LABCHIP 3000 Reader). The experiment is classed as biochemical. The note with it: 5 μM ATP, 1.5 μM peptide substrate. Put shortly: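 Reaction in 20 mM HEPES pH 7.5, 20 mM MgCl2, 0.015% Brij-35, 4 mM DTT with 5 μM ATP and 1.5 μM FITC-AHA-AKRRRLSSLRA-OH peptide, started with Rho kinase, DMSO <2%. EDTA-stopped; phospho and non-phospho peptide separated by mobility shift. IC50 from dose-response curve fit.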
Sequence of ROCK2 (O75116 whole entry, species assumed): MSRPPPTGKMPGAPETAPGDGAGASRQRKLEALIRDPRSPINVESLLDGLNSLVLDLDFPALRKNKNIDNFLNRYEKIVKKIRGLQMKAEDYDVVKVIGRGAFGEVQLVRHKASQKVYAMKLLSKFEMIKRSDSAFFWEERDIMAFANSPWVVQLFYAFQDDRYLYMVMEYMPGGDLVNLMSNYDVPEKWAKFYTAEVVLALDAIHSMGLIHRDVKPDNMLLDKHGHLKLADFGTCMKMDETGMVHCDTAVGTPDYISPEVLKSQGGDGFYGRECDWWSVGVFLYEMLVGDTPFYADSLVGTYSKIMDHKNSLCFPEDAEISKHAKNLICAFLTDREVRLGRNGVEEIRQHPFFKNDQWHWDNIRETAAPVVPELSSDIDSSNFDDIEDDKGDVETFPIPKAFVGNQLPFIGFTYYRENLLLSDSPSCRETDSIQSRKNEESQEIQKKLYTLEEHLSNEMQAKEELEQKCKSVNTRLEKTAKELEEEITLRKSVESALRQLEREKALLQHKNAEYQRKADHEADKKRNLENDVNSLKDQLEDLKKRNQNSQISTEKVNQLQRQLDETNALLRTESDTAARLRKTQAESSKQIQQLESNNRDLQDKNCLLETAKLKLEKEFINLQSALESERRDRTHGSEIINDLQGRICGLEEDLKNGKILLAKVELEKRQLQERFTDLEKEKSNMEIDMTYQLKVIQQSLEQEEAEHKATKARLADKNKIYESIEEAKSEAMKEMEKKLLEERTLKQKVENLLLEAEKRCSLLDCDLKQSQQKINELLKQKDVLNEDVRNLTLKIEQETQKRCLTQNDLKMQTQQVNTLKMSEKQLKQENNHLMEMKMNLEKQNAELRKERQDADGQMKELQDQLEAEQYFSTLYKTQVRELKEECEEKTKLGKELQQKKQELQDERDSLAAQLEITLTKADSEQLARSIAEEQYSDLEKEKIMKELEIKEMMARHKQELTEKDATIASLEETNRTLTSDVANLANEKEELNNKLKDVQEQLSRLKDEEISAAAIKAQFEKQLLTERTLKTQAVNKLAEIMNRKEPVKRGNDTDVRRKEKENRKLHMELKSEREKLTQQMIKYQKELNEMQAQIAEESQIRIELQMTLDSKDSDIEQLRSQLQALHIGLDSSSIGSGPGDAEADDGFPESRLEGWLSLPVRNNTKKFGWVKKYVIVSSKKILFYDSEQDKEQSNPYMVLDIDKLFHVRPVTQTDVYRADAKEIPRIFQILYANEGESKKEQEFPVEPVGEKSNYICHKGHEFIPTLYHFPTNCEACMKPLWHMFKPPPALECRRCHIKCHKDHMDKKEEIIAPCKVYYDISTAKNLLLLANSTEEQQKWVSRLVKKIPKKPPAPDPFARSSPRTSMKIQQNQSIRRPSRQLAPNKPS
Compound `COc1cccc(CN2C(=O)N(c3ccc(-c4cn[nH]c4)cn3)CC23CCN(CCC(F)(F)F)CC3)c1` [Example 133, 3-(5-(1H-pyrazol-4-yl)pyridin-2-yl)-1-(3-methoxybenzyl)-8-(3,3,3-trifluoropropyl)-1,3,8-triazaspiro[4.5]decan-2-one] came in with a half-inhibitory concentration (IC50) of 3 to 30 nM. Then `COc1cccc(CN2C(=O)N(c3ccc(-c4cn[nH]c4)c(OC)n3)CC23CCN(CCO)CC3)c1` [Example 146, 8-(2-hydroxyethyl)-3-(6-methoxy-5-(1H-pyrazol-4-yl)pyridin-2-yl)-1-(3-methoxybenzyl)-1,3,8-triazaspiro[4.5]decan-2-one], with less than 3 nM; and `CCc1nc(N2CC3(CCN(C(=O)C(C)(C)O)CC3)N(Cc3cc(F)cc(OC)c3)C2=O)ccc1-c1cn[nH]c1` [Example 187, 3-(6-ethyl-5-(1H-pyrazol-4-yl)pyridin-2-yl)-1-(3-fluoro-5-methoxybenzyl)-8-(2-hydroxy-2-methylpropanoyl)-1,3,8-triazaspiro[4.5]decan-2-one], with less than 3 nM. Compound `O=C(NCC(F)(F)F)c1cccc(CN2C(=O)N(c3ccc(-c4cn[nH]c4)cc3)CC23CCOCC3)c1` [Example 38, 3-((3-(4-(1H-pyrazol-4-yl)phenyl)-2-oxo-8-oxa-1,3-diazaspiro[4.5]decan-1-yl)methyl)-N-(2,2,2-trifluoroethyl)benzamide] yielded an IC50 of less than 3 nM. The figure for `NC(=O)c1cccc(CN2C(=O)N(c3ccc(-c4cn[nH]c4)cc3)CC23CCOCC3)c1` [Example 32, 3-((3-(4-(1H-pyrazol-4-yl)phenyl)-2-oxo-8-oxa-1,3-diazaspiro[4.5]decan-1-yl)methyl)benzamide] is 30 to 250 nM; for `Cc1c(F)cccc1CN1C(=O)N(c2ccc(-c3cn[nH]c3)cc2)CC12CCN(CC(F)F)CC2` [Example 131, 3-(4-(1H-pyrazol-4-yl)phenyl)-8-(2,2-difluoroethyl)-1-(3-fluoro-2-methylbenzyl)-1,3,8-triazaspiro[4.5]decan-2-one] it is less than 3 nM. Take `CCc1nc(N2CC3(CCN(CCO)CC3)N(Cc3cccc(F)c3C)C2=O)ccc1-c1cn[nH]c1` [Example 149, 3-(6-ethyl-5-(1H-pyrazol-4-yl)pyridin-2-yl)-1-(3-fluoro-2-methylbenzyl)-8-(2-hydroxyethyl)-1,3,8-triazaspiro[4.5]decan-2-one]: the IC50 was less than 3 nM. The figure for `COc1cccc(CN2C(=O)N(c3ccc(-c4cn[nH]c4)cc3)CC23CCN(CCC(C)C)CC3)c1` [Example 117, 3-(4-(1H-pyrazol-4-yl)phenyl)-8-isopentyl-1-(3-methoxybenzyl)-1,3,8-triazaspiro[4.5]decan-2-one] is less than 3 nM; for `CCN1CCC2(CC1)CN(c1ccc(-c3cn[nH]c3)cc1)C(=O)N2Cc1cccc(OC)c1` [Example 122, 3-(4-(1H-pyrazol-4-yl)phenyl)-8-ethyl-1-(3-methoxybenzyl)-1,3,8-triazaspiro[4.5]decan-2-one] it is less than 3 nM; for `CCc1nc(N2CC3(CCN(C(=O)CO)CC3)N(Cc3cccc(OC)c3)C2=O)ccc1-c1cn[nH]c1` [Example 184, 3-(6-ethyl-5-(1H-pyrazol-4-yl)pyridin-2-yl)-8-(2-hydroxyacetyl)-1-(3-methoxybenzyl)-1,3,8-triazaspiro[4.5]decan-2-one] it is less than 3 nM. As to `O=C1N(c2ccc(-c3cn[nH]c3)cc2)CC2(CCOCC2)N1Cc1cccc(C(F)(F)F)c1` [Example 18, 3-(4-(1H-pyrazol-4-yl)phenyl)-1-(3-(trifluoromethyl)benzyl)-8-oxa-1,3-diazaspiro[4.5]decan-2-one], the IC50 is 30 to 250 nM. `CCc1nc(N2CC3(CCN(CCC(F)(F)F)CC3)N(Cc3cccc(OC)c3)C2=O)ccc1-c1cn[nH]c1` [Example 127, 3-(6-ethyl-5-(1H-pyrazol-4-yl)pyridin-2-yl)-1-(3-methoxybenzyl)-8-(3,3,3-trifluoropropyl)-1,3,8-triazaspiro[4.5]decan-2-one] had an IC50 of 3 to 30 nM. The figure for `CNC(=O)CN1CCC2(CC1)CN(c1ccc(-c3cn[nH]c3)cc1)C(=O)N2Cc1cccc(OC)c1` [Example 168, 2-(3-(4-(1H-pyrazol-4-yl)phenyl)-1-(3-methoxybenzyl)-2-oxo-1,3,8-triazaspiro[4.5]decan-8-yl)-N-methylacetamide] is less than 3 nM; for `COCC(=O)N1CCC2(CC1)CN(c1ccc(-c3cn[nH]c3)cn1)C(=O)N2Cc1cccc(OC)c1` [Example 197, 3-(5-(1H-pyrazol-4-yl)pyridin-2-yl)-8-(2-methoxyacetyl)-1-(3-methoxybenzyl)-1,3,8-triazaspiro[4.5]decan-2-one] it is 3 to 30 nM; for `COc1nc(N2CC3(CCN(C(=O)C(C)(C)CO)CC3)N(Cc3cccc(F)c3C)C2=O)ccc1-c1cn[nH]c1` [Example 228, 1-(3-fluoro-2-methylbenzyl)-8-(3-hydroxy-2,2-dimethylpropanoyl)-3-(6-methoxy-5-(1H-pyrazol-4-yl)pyridin-2-yl)-1,3,8-triazaspiro[4.5]decan-2-one] it is less than 3 nM.

As to `O=C1N(c2ccc(-c3cn[nH]c3)cc2)CC2(CCOCC2)N1Cc1ccc(F)c(F)c1` [Example 17, 3-(4-(1H-pyrazol-4-yl)phenyl)-1-(3,4-difluorobenzyl)-8-oxa-1,3-diazaspiro[4.5]decan-2-one], the IC50 fell in the range of 3 to 30 nM.

Consider `COc1cccc(CN2C(=O)N(c3ncc(-c4cn[nH]c4)c(OC)n3)CC23CCN(C(=O)CN(C)C)CC3)c1` [Example 210, 8-(2-(dimethylamino)acetyl)-3-(4-methoxy-5-(1H-pyrazol-4-yl)pyrimidin-2-yl)-1-(3-methoxybenzyl)-1,3,8-triazaspiro[4.5]decan-2-one], for which the IC50 was less than 3 nM. `COC(=O)N1CCC2(CC1)CN(c1ccc(-c3cn[nH]c3)c(OC)n1)C(=O)N2Cc1cccc(OC)c1` [Example 102, methyl 3-(6-methoxy-5-(1H-pyrazol-4-yl)pyridin-2-yl)-1-(3-methoxybenzyl)-2-oxo-1,3,8-triazaspiro[4.5]decane-8-carboxylate] came in with an IC50 of less than 3 nM. The figure for `CCc1nc(N2CC3(CCN(CC(C)O)CC3)N(Cc3cccc(F)c3C)C2=O)ccc1-c1cn[nH]c1` (stereo not drawn) [Example 156, 3-(6-ethyl-5-(1H-pyrazol-4-yl)pyridin-2-yl)-1-(3-fluoro-2-methylbenzyl)-8-(2-hydroxypropyl)-1,3,8-triazaspiro[4.5]decan-2-one] is less than 3 nM; for `O=C1N(c2ccc(-c3cn[nH]c3)cc2)CC2(CCOCC2)N1Cc1ccccc1F` [Example 12, 3-(4-(1H-pyrazol-4-yl)phenyl)-1-(2-fluorobenzyl)-8-oxa-1,3-diazaspiro[4.5]decan-2-one] it is 30 to 250 nM. On to `CCc1nc(N2CC3(CCN(C(=O)C4COC4)CC3)N(Cc3cccc(OC)c3)C2=O)ccc1-c1cn[nH]c1` [Example 185, 3-(6-ethyl-5-(1H-pyrazol-4-yl)pyridin-2-yl)-1-(3-methoxybenzyl)-8-(oxetane-3-carbonyl)-1,3,8-triazaspiro[4.5]decan-2-one], for which the IC50 is less than 3 nM. The figure for `COc1cccc(CN2C(=O)N(c3ncc(-c4cn[nH]c4)c(OC)n3)CC23CCN(C(=O)OC(C)(C)C)CC3)c1` [Example 56, tert-butyl 3-(4-methoxy-5-(1H-pyrazol-4-yl)pyrimidin-2-yl)-1-(3-methoxybenzyl)-2-oxo-1,3,8-triazaspiro[4.5]decane-8-carboxylate] is 3 to 30 nM; for `CCCN1CCC2(CC1)CN(c1ccc(-c3cn[nH]c3)cc1)C(=O)N2Cc1cccc(OC)c1` [Example 116, 3-(4-(1H-pyrazol-4-yl)phenyl)-1-(3-methoxybenzyl)-8-propyl-1,3,8-triazaspiro[4.5]decan-2-one] it is less than 3 nM; for `COc1cccc(NC2C(=O)N(c3ccc(-c4cn[nH]c4)cn3)CC23CCN(C(=O)CC(C)c2ccccc2)CC3)c1` (stereo not drawn) [Example 254, 2-(5-(1H-pyrazol-4-yl)pyridin-2-yl)-4-((3-methoxy-phenyl)amino)-8-(3-phenyl-butanoyl)-2,8-diazaspiro [4.5]decan-3-one] it is 250 to 3000 nM. Turning to `COc1cccc(CN2C(=O)N(c3ccc(-c4cn[nH]c4)c(OC)n3)CC23CCN(CC(C)(C)O)CC3)c1` [Example 148, 8-(2-hydroxy-2-methylpropyl)-3-(6-methoxy-5-(1H-pyrazol-4-yl)pyridin-2-yl)-1-(3-methoxybenzyl)-1,3,8-triazaspiro[4.5]decan-2-one], the IC50 is less than 3 nM. For the compound `COC(=O)N1CC2(C1)CN(c1ccc(-c3cn[nH]c3)cc1)C(=O)C2Nc1cccc(OC)c1` (stereo not drawn) [Example 248, methyl 6-(4-(1H-pyrazol-4-yl)phenyl)-8-((3-methoxy-phenyl)amino)-7-oxo-2,6-diazaspiro [3.4]octane-2-carboxylate], the IC50 was 250 to 3000 nM. The figure for `COc1cccc(CN2C(=O)N(c3ccc(-c4cn[nH]c4)cc3)CC23CCN(CC(C)O)CC3)c1` (single isomer, unassigned) [Example 140, 3-(4-(1H-pyrazol-4-yl)phenyl)-8-(2-hydroxypropyl)-1-(3-methoxybenzyl)-1,3,8-triazaspiro[4.5]decan-2-one] is less than 3 nM; for `COc1nc(N2CC3(CCN(CC(F)F)CC3)N(Cc3cccc(F)c3C)C2=O)ccc1-c1cn[nH]c1` [Example 137] it is less than 3 nM; for `CCOC(=O)N1CCC2(CC1)CN(c1ccc(-c3cn[nH]c3)cn1)C(=O)N2Cc1cccc(OC)c1` [Example 110, ethyl 3-(5-(1H-pyrazol-4-yl)pyridin-2-yl)-1-(3-methoxybenzyl)-2-oxo-1,3,8-triazaspiro[4.5]decane-8-carboxylate] it is 30 to 250 nM.

`COC(=O)N1CCC2(CC1)CN(c1ccc(-c3cn[nH]c3)cc1)C(=O)N2Cc1cccc(F)c1C` [Example 108, methyl 3-(4-(1H-pyrazol-4-yl)phenyl)-1-(3-fluoro-2-methylbenzyl)-2-oxo-1,3,8-triazaspiro[4.5]decane-8-carboxylate] displayed an IC50 of less than 3 nM.
